Experimental data reported in publication PMC6586119, “Synthesis and biological evaluation of novel 8-substituted quinoline-2-carboxamides as carbonic anhydrase inhibitors” (Journal of Enzyme Inhibition and Medicinal Chemistry, 2019).
Like-named read-outs stand apart in the source and are kept apart here.

How the values were obtained:
Assay in all cases: stopped-flow CO2 hydration assay
Assay type in all cases: biochemical
hCA II = target: T1, hCA II (Homo sapiens, UniProt P00918)
T1 construct: gene CA2; recombinant, cytosolic isoform
Excerpt: stopped-flow CO2 hydration assay on hCA II

hCA IV = target: T2, hCA IV (Homo sapiens, UniProt P22748)
T2 construct: gene CA4
T2 sequence (P22748 19-284): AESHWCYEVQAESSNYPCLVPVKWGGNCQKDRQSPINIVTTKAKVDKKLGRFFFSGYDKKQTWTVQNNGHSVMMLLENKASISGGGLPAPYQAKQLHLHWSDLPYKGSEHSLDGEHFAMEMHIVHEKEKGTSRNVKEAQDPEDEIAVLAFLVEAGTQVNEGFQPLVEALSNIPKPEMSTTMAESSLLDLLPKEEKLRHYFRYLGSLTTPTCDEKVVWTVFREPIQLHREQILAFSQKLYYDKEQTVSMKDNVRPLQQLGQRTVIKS
Excerpt: stopped-flow CO2 hydration assay on hCA IV

hCA I = target: T3, hCA I (Homo sapiens, UniProt P00915)
T3 construct: gene CA1; recombinant, cytosolic isoform
T3 sequence (P00915 2-261): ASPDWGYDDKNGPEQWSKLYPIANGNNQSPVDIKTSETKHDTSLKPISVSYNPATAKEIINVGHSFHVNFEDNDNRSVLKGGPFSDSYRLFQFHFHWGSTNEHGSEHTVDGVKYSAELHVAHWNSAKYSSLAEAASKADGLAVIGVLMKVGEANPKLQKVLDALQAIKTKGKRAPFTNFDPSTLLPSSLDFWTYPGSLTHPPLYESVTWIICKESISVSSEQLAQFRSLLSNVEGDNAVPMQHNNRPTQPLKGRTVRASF
Excerpt: stopped-flow CO2 hydration assay on hCA I

[1] = CO2 hydration, […] Hepes pH […] °C, […] Na2SO4 or NaClO4, […] min preincubation

Ki (hCA II) [nM] | Ki (hCA IV) [nM] | Ki (hCA I) [nM] | Ki (hCA II; [1]) [nM] | Ki (hCA I; [1]) [nM] | SMILES
5110 | 657 | 6910 | – | – | C#CCOc1cccc2ccc(C(=O)Nc3ccc(S(N)(=O)=O)cc3)nc12 [5g, 8-(Prop-2-yn-1-yloxy)-N-(4-sulfamoylphenyl)quinoline-2-carboxamide]
85.7 | 3930 | 444 | – | – | NS(=O)(=O)c1ccc(NC(=O)c2ccc3cccc(OCc4ccccc4Br)c3n2)cc1 [5b, 8-((2-Bromobenzyl)oxy)-N-(4-sulfamoylphenyl)quinoline-2-carboxamide]
5170 | 807 | 6470 | – | – | NS(=O)(=O)c1ccc(NC(=O)c2ccc3cccc(OCc4cccc(Cl)c4)c3n2)cc1 [5e, 8-((3-Chlorobenzyl)oxy)-N-(4-sulfamoylphenyl)quinoline-2-carboxamide]
8340 | 6410 | 5290 | – | – | NS(=O)(=O)c1ccc(NC(=O)c2ccc3cccc(OCc4ccccc4)c3n2)cc1 [5c, 8-(Benzyloxy)-N-(4-sulfamoylphenyl)quinoline-2-carboxamide]
88.4 | 691 | 641 | – | – | NS(=O)(=O)c1ccc(NC(=O)c2ccc3cccc(OCc4ccc([N+](=O)[O-])cc4)c3n2)cc1 [5a, 8-((4-Nitrobenzyl)oxy)-N-(4-sulfamoylphenyl)quinoline-2-carboxamide]
– | 1750 | – | 33 | 61.9 | COc1cccc2ccc(C(=O)Nc3ccc(S(N)(=O)=O)cc3)nc12 [5h, 8-Methoxy-N-(4-sulfamoylphenyl)quinoline-2-carboxamide]
957 | 787 | 6560 | – | – | NS(=O)(=O)c1ccc(NC(=O)c2ccc3cccc(OCc4cc(F)ccc4F)c3n2)cc1 [5f, 8-((2,5-Difluorobenzyl)oxy)-N-(4-sulfamoylphenyl)quinoline-2-carboxamide]
8760 | 6760 | 8130 | – | – | Cc1cc(C)cc(COc2cccc3ccc(C(=O)Nc4ccc(S(N)(=O)=O)cc4)nc23)c1 [5d, 8-((3,5-Dimethylbenzyl)oxy)-N-(4-sulfamoylphenyl)quinoline-2-carboxamide]
